Test results published in the supplement of paper PMC10307832.

What was measured:
Experiment in all cases: relative viability (nuclei count vs DMSO), 5 days (fraction); higher = more cells survive
BX 795 = compound: O=C(NCCCNc1nc(Nc2cccc(NC(=O)N3CCCC3)c2)ncc1I)c1cccs1 [BX 795]
Outline: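 Nuclei counted with MetaXpress define viability as the ratio of treated to vehicle wells, given as a median across plates. The lung cancer cell lines were in 1536-well plates, pinned with five √10-spaced library-drug doses and imaged at 4× after 5 days and Hoechst staining. Plates passed with control CV below 25% and at least one doubling.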

BX 795 + OSI-027 = compound: O=C(NCCCNc1nc(Nc2cccc(NC(=O)N3CCCC3)c2)ncc1I)c1cccs1 [BX 795] + COc1cccc2cc(-c3nc([C@H]4CC[C@H](C(=O)O)CC4)n4ncnc(N)c34)[nH]c12 [OSI-027] (partner 0.5 µM)
Outline: (§1)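 Relative viability is defined as nuclei in treated wells over nuclei in vehicle wells. Duplicate plates were run and medians reported. Lung cancer cell lines in 1536-well plates were dosed by pin tool one day after seeding, with one drug or with a fixed anchor-drug dose plus five library-drug doses (not always all listed) in √10 steps, and nuclei were counted after 5 days.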

BX 795 + Linsitinib = compound: O=C(NCCCNc1nc(Nc2cccc(NC(=O)N3CCCC3)c2)ncc1I)c1cccs1 [BX 795] + C[C@]1(O)C[C@@H](c2nc(-c3ccc4ccc(-c5ccccc5)nc4c3)c3c(N)nccn32)C1 [Linsitinib] (partner 1 µM)
Outline: as §1

BX 795 + Tozasertib = compound: O=C(NCCCNc1nc(Nc2cccc(NC(=O)N3CCCC3)c2)ncc1I)c1cccs1 [BX 795] + Cc1cc(Nc2cc(N3CCN(C)CC3)nc(Sc3ccc(NC(=O)C4CC4)cc3)n2)n[nH]1 [Tozasertib] (partner 0.1 µM)
Outline: as §1

BX 795 + AZD7762 = compound: O=C(NCCCNc1nc(Nc2cccc(NC(=O)N3CCCC3)c2)ncc1I)c1cccs1 [BX 795] + NC(=O)Nc1cc(-c2cccc(F)c2)sc1C(=O)N[C@H]1CCCNC1 [AZD7762] (partner 0.2 µM)
Outline: as §1

Cell Line	relative viability (BX 795; 0.04 µM)	relative viability (BX 795; 0.1265 µM)	relative viability (BX 795; 0.4 µM)	relative viability (BX 795; 1.265 µM)	relative viability (BX 795 + OSI-027; first compound 0.04 µM)	relative viability (BX 795 + OSI-027; first compound 0.1265 µM)	relative viability (BX 795 + OSI-027; first compound 0.4 µM)	relative viability (BX 795 + OSI-027; first compound 1.265 µM)	relative viability (BX 795 + Linsitinib; first compound 0.04 µM)	relative viability (BX 795 + Linsitinib; first compound 0.1265 µM)	relative viability (BX 795 + Linsitinib; first compound 0.4 µM)	relative viability (BX 795 + Linsitinib; first compound 1.265 µM)	relative viability (BX 795 + Tozasertib; first compound 0.04 µM)	relative viability (BX 795 + Tozasertib; first compound 0.1265 µM)	relative viability (BX 795 + Tozasertib; first compound 0.4 µM)	relative viability (BX 795 + Tozasertib; first compound 1.265 µM)	relative viability (BX 795 + AZD7762; first compound 0.04 µM)	relative viability (BX 795 + AZD7762; first compound 0.1265 µM)	relative viability (BX 795 + AZD7762; first compound 0.4 µM)	relative viability (BX 795 + AZD7762; first compound 1.265 µM)
NCI-H838	0.892	0.993	0.79	0.614	0.386	0.338	0.379	0.303	0.936	0.986	0.881	0.331	0.236	0.303	0.272	0.22	0.94	0.981	0.786	0.824
NCI-H1355	1.01	1.01	1.02	0.873	0.407	0.405	0.44	0.379	0.768	0.869	0.811	0.65	0.589	0.442	0.486	0.385	0.784	0.607	0.734	0.69
NCI-H1395	0.839	0.858	0.586	0.633	0.635	0.686	0.482	0.498	1.1	0.957	0.611	0.786	0.698	0.721	0.601	0.72	0.375	0.427	0.39	0.381
NCI-H1437	0.978	1.05	1.03	1.01	0.879	0.89	0.834	0.847	1.05	1.07	0.992	0.769	0.378	0.395	0.429	0.413	1.14	1.14	0.888	1.18
NCI-H1651	1.04	1.04	0.993	1	0.588	0.716	0.576	0.765	0.999	1.1	1.02	0.831	0.711	0.709	0.59	0.641	0.469	0.457	0.463	0.511
NCI-H1666	1.06	1.03	1.01	0.925	0.859	0.876	0.993	0.803	0.777	1.07	1.05	0.74	0.642	0.69	0.599	0.403	0.895	0.784	0.838	0.832
NCI-H1734	1.06	1.02	0.908	0.668	0.536	0.592	0.555	0.419	0.915	0.968	0.861	0.761	0.243	0.23	0.238	0.216	0.54	0.562	0.51	0.444
NCI-H1755	1.05	1.03	0.972	0.881	0.711	0.74	0.794	0.552	1.04	0.93	1.01	0.689	0.681	0.481	0.553	0.508	0.465	0.467	0.374	0.386
NCI-H1793	1.09	0.917	1.05	0.808	0.34	0.292	0.329	0.241	0.874	1.06	1.01	0.507	0.372	0.326	0.375	0.213	0.425	0.447	0.484	0.487
NCI-H1915	1.03	0.974	0.955	0.903	0.7	0.6	0.663	0.469	1.16	1.09	1.08	1.02	0.473	0.413	0.405	0.241	0.651	0.658	0.666	0.695
NCI-H1944	1.06	0.996	1.16	0.958	0.51	0.459	0.488	0.381	1.25	1.36	1.14	1.1	0.286	0.236	0.302	0.243	0.531	0.555	0.48	0.531
NCI-H1975	0.977	1.07	0.858	0.806	0.83	0.7	0.574	0.424	0.83	1.04	0.977	0.659	0.707	0.794	0.623	0.234	0.705	0.792	0.67	0.564
NCI-H1993	1.05	0.983	0.926	0.893	0.528	0.537	0.531	0.532	0.628	0.732	0.713	0.696	0.582	0.553	0.527	0.55	0.759	0.795	0.589	0.809
NCI-H2085	1.01	1.03	0.981	0.97	0.732	0.817	0.73	0.648	0.883	0.961	1.04	0.737	0.797	0.84	0.771	0.66	0.895	0.932	0.947	0.957
NCI-H2087	1.07	1.14	1.15	0.941	0.793	0.82	0.848	0.502	1.1	0.924	1.06	0.647	0.266	0.293	0.307	0.183	1.26	1.33	1.32	1.13
